# Results: patent publication US20070004763A1, “AMINOQUINOLINE AND AMINOQUINAZOLINE KINASE MODULATORS” (priority 2005, published 2007)
# Target: T1, TrkB (Homo sapiens, UniProt Q16620)
# T1 construct: purchased Upstate 14-507M
# Assay: Trk B Fluorescence Polarization Kinase Assay
# Type: biochemical
# Conditions: 150 uM ATP, 50 nM TrkB; uncertainty ±10%
# Description: The compounds of the present invention are also specific inhibitors of TrkB. Selection of preferred compounds of Formula I for use as TrkB inhibitors was performed in the following manner. The TrkB assay utilized the fluorescein-labeled phosphopeptide and the anti-phosphotyrosine antibody included in the Panvera Phospho-Tyrosine Kinase Kit (Green) supplied by Invitrogen. When TrkB phosphorylated poly Glu4Tyr, the fluorescein-labeled phosphopeptide was displaced from the anti-phosphotyrosine antibody by the phosphorylated poly Glu4Tyr, thus decreasing the FP value. The TrkB kinase reaction was incubated at room temperature for 30 minutes under the following conditions: 50 nM TrkB (Upstate, catalog #14-507M), 20 ug/mL poly Glu4Tyr, 150 uM ATP, 5 mM MgCl2, 1% compound in DMSO. The kinase reaction was stopped with the addition of EDTA. The fluorescein-labeled phosphopeptide and the anti-phosphotyrosine antibody were added and incubated for 30 minutes at room temperature. Data points were an average of triplicate samples. Inhibition and IC50 data analysis were done with GraphPad Prism using a non-linear regression fit with a multiparamater, sigmoidal dose-response (variable slope) equation.
# T1 sequence (Q16620 526-822 limits assumed): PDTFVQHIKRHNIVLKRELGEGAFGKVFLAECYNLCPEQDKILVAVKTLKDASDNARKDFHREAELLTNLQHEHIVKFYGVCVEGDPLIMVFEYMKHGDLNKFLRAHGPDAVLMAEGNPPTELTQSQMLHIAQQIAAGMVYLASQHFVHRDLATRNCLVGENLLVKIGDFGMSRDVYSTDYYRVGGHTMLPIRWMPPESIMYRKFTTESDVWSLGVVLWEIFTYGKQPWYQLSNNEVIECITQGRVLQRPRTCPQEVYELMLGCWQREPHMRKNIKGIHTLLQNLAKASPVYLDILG
row,IC50 [µM],SMILES
1,5.72,"COc1cc2ncnc(N3CCC(OC(=O)Nc4ccc(C(C)C)cc4)CC3)c2cc1OC [Compound 1, (4-Isopropyl-phenyl)-carbamic acid 1-(6,7-dimethoxy-quinazolin-4-yl)-piperidin-4-yl ester]"
2,3.7,"COc1cc2ncnc(N3CCC(OC(=O)Nc4ccc(C(C)C)cc4)C3)c2cc1OC (stereo not shown) [Compound 2, (4-Isopropyl-phenyl)-carbamic acid 1-(6,7-dimethoxy-quinazolin-4-yl)-pyrrolidin-3-yl ester]"
3,5.8,"COc1cc2ncnc(N3CCC(OC(=O)Nc4ccc(OC(C)C)cc4)CC3)c2cc1OC [Compound 3, (4-Isopropoxy-phenyl)-carbamic acid 1-(6,7-dimethoxy-quinazolin-4-yl)-piperidin-4-yl ester]"
4,8.4,COc1cc2ncnc(N3CCCC(COC(=O)Nc4ccc(C(C)C)cc4)C3)c2cc1OC (stereo not shown) [Compound 4]
5,2.4,"COc1cc2ncnc(N3CCC(CC(=O)Nc4ccc(C(C)C)cc4)CC3)c2cc1OC [Compound 5, 2-[1-(6,7-Dimethoxy-quinazolin-4-yl)-piperidin-4-yl]-N-(4-isopropyl-phenyl)-acetamide]"
6,0.1,"COc1cc2ncnc(N3CCC(CC(=O)Nc4ccc(C(C)C)cc4)C3)c2cc1OC (stereo not shown) [Compound 6, 2-[11-(6,7-Dimethoxy-quinazolin-4-yl)-pyrrolidin-3-yl]-N-(4-isopropyl-phenyl)-acetamide]"
7,3.65,"COc1cc2ncnc(N3CCC(NC(=O)Nc4ccc(OC(C)C)cc4)C3)c2cc1OC (stereo not shown) [Compound 8, 1-[1-(6,7-Dimethoxy-quinazolin-4-yl)-pyrrolidin-3-yl]-3-(4-isopropoxy-phenyl)-urea]"
8,0.2,COc1cc2ncnc(N3CCCC3COC(=O)Nc3ccc(C(C)C)cc3)c2cc1OC (stereo not shown) [Compound 9]
9,6.5,CC(C)c1ccc(NC(=O)OC2CCN(c3ccnc4ccccc34)CC2)cc1 [Compound 10]
10,0.16,"COc1cc2ncnc(N3CCC(C(=O)Nc4ccc(C(C)C)cc4)CC3)c2cc1OC [Compound 13, 1-(6,7-Dimethoxy-quinazolin-4-yl)-piperidine-4-carboxylic acid (4-isopropyl-phenyl)-amide]"
11,0.4,"CC(C)c1ccc(NC(=O)OC2CCN(c3ncnc4ccc(C#CCO)cc34)C2)cc1 (stereo not shown) [Compound 14, (4-Isopropyl-phenyl)-carbamic acid 1-[6-(3-hydroxy-prop-1-ynyl)-quinazolin-4-yl]-pyrrolidin-3-yl ester]"
12,12.5,"COc1cc2ncnc(N3CCC(OC(=O)Nc4ccc(OC(C)C)cc4)C3)c2cc1OC (stereo not shown) [Compound 15, (4-Isopropoxy-phenyl)-carbamic acid 1-(6,7-dimethoxy-quinazolin-4-yl)-pyrrolidin-3-yl ester]"
13,2.4,"CC(C)c1ccc(NC(=O)NC2CCN(c3ncnc4ccccc34)C2)cc1 (stereo not shown) [Compound 16, 1-(4-Isopropyl-phenyl)-3-(1-quinazolin-4-yl-pyrrolidin-3-yl) urea]"
14,3.6,"CCN(CC)CC#Cc1ccc2ncnc(N3CCC(OC(=O)Nc4ccc(C(C)C)cc4)C3)c2c1 (stereo not shown) [Compound 17, (4-Isopropyl-phenyl)-3-carbamic acid 1-[6-(3-diethylamino-prop-1-ynyl)-quinazolin-4-yl]-pyrrolidin-3-yl ester]"
15,0.5,"COc1cc2ncnc(N3CCC(CNC(=O)Nc4ccc(C(C)C)cc4)CC3)c2cc1OC [Compound 18, 1-[1-(6,7-Dimethoxy-quinazolin-4-yl)-piperidin-4-ylmethyl]-3-(4-isopropyl-phenyl)-urea]"
16,13.1,"CC(C)c1ccc(NC(=O)OC2CCN(c3ncnc4ccc(I)cc34)C2)cc1 (stereo not shown) [Compound 20, (4-Isopropyl-phenyl)-carbamic acid 1-(6-iodo-quinazolin-4-yl)-pyrrolidin-3-yl ester]"
17,11.2,"COc1cc2ncnc(N3CCC(NC(=O)Cc4ccc(C(C)C)cc4)CC3)c2cc1OC [Compound 21, N-[1-(6,7-Dimethoxy-quinazolin-4-yl)-piperidin-4-yl]-2-(4-isopropyl-phenyl)-acetamide]"
18,0.8,"COc1cc2ncnc(N3CCC(COC(=O)Nc4ccc(C(C)C)cc4)CC3)c2cc1OC [Compound 22, (4-Isopropyl-phenyl)-carbamic acid 1-(6,7-dimethoxy-quinazolin-4-yl)-piperidin-4-ylmethyl ester]"
19,0.55,"COc1cc2ncnc(N3CCC(C(=O)Nc4ccc(OC(C)C)cc4)CC3)c2cc1OC [Compound 23, 1-(6,7-Dimethoxy-quinazolin-4-yl)-piperidine-4-carboxylic acid (4-isopropoxy-phenyl)-amide]"

row,IC50 [µM],SMILES
1,5.5,"CC(C)c1ccc(NC(=O)OC2CCN(c3ncnc4ccccc34)C2)cc1 (stereo not shown) [Compound 24, (4-Isopropyl-phenyl)-carbamic acid 1-quinazolin-4-yl-pyrrolidin-3-yl ester]"
2,10.9,"COc1cc2ncc(C#N)c(N3CCC(NC(=O)Nc4ccc(C(C)C)cc4)C3)c2cc1OC (stereo not shown) [Compound 26, 1-[1-(3-Cyano-6,7-dimethoxy-quinolin-4-yl)-pyrrolidin-3-yl]-3-(4-isopropyl-phenyl)-urea]"
3,7.7,"CC(C)c1ccc(NC(=O)NC2CCN(c3ccnc4ccccc34)C2)cc1 (stereo not shown) [Compound 27, (4-Isopropyl-phenyl)-3-(1-quinolin-4-yl)-pyrrolidin-3-yl-urea]"
4,0.3,"COc1cc2ncnc(N3CCCC(NC(=O)Nc4ccc(C(C)C)cc4)C3)c2cc1OC (stereo not shown) [Compound 28, 1-[1-(6,7-Dimethoxy-quinazolin-4-yl)-piperidin-3-yl]-3-(4-isopropyl-phenyl)-urea]"
5,10.3,"COc1cc2ncc(C#N)c(N3CCC(NC(=O)Nc4ccc(OC(C)C)cc4)C3)c2cc1OC (stereo not shown) [Compound 29, 1-[1-(3-Cyano-6,7-dimethoxy-quinolin-4-yl)-pyrrolidin-3-yl]-3-(4-isopropoxy-phenyl)-urea]"
6,0.2,"COc1cc2ncnc(N3CCCC(OC(=O)Nc4ccc(C(C)C)cc4)C3)c2cc1OC (stereo not shown) [Compound 31, (4-Isopropyl-phenyl)-carbamic acid 1-[1-(6,7-dimethoxy-quinazolin-4-yl)-piperidin-3-yl]ester]"
7,5.3,"COc1cc2ncc(C#N)c(N3CCC(OC(=O)Nc4ccc(OC(C)C)cc4)C3)c2cc1OC (stereo not shown) [Compound 32, (4-Isopropoxy-phenyl)-carbamic acid 1-(3-cyano-6,7-dimethoxy-quinolin-4-yl)-pyrrolidin-3-yl ester]"
8,5,"COc1cc2ncnc(N3CCCCC3COC(=O)Nc3ccc(C(C)C)cc3)c2cc1OC (stereo not shown) [Compound 33, (4-Isopropyl-phenyl)-carbamic acid 1-(6,7-dimethoxy-quinazolin-4-yl)-piperidin-2-ylmethyl ester]"
9,7.6,CC(C)c1ccc(NC(=O)OC2CCN(c3ccnc4ccccc34)C2)cc1 (stereo not shown) [Compound 34]
10,6.5,"COc1cc2ncnc(N3CCC(NC(=O)Cc4ccc(C(C)C)cc4)C3)c2cc1OC (stereo not shown) [Compound 35, N-[1-(6,7-Dimethoxy-quinazolin-4-yl)-pyrrolidin-3-yl]-2-(4-isopropyl-phenyl)-acetamide]"
11,8.48,"COc1cc2ncc(C#N)c(N3CCC(OC(=O)Nc4ccc(C(C)C)cc4)C3)c2cc1OC (stereo not shown) [Compound 37, (4-Isopropyl-phenyl)-carbamic acid 1-(3-cyano-6,7-dimethoxy-quinolin-4-yl)-pyrrolidin-3-yl ester]"
12,26.8,"CC(C)Oc1ccc(NC(=O)NC2CCN(c3ccnc4ccccc34)C2)cc1 (stereo not shown) [Compound 38, (4-Isopropoxy-phenyl)-3-(1-quinolin-4-yl)-pyrrolidin-3-yl-urea]"
13,9.1,CC(C)Oc1ccc(NC(=O)OC2CCN(c3ccnc4ccccc34)C2)cc1 (stereo not shown) [Compound 39]
14,11.8,"COc1cc2ncc(C#N)c(N3CCC(OC(=O)Nc4ccc(OC(C)C)cc4)CC3)c2cc1OC [Compound 40, (4-Isopropoxy-phenyl)-carbamic acid 1-(3-cyano-6,7-dimethoxy-quinolin-4-yl)-piperidin-4-yl ester]"
15,14,CC(C)Oc1ccc(NC(=O)OC2CCN(c3ccnc4ccccc34)CC2)cc1 [Compound 41]
16,> 42,"COc1cc2ncc(C#N)c(N3CCC(OC(=O)Nc4ccc(C(C)C)cc4)CC3)c2cc1OC [Compound 42, (4-Isopropyl-phenyl)-carbamic acid 1-(3-cyano-6,7-dimethoxy-quinolin-4-yl)-piperidin-4-yl ester]"
17,40.6,"COc1cc2ncnc(N3CCC(NC(=O)Nc4ccc(N5CCOCC5)cc4)C3)c2cc1OC (stereo not shown) [Compound 43, 1-[1-(6,7-Dimethoxy-quinazolin-4-yl)-pyrrolidin-3-yl]-3-(4-morpholin-4-yl-phenyl)-urea]"
18,11.8,"COc1cc2ncnc(N3CCC(NC(=O)Nc4ccc(OC5CCCC5)nc4)C3)c2cc1OC (stereo not shown) [Compound 45, 1-(6-Cyclopentyloxy-pyridin-3-yl)-3-[1-(6,7-dimethoxy-quinazolin-4-yl)-pyrrolidin-3-yl]-urea]"

row,SMILES,IC50 [µM]
1,"COc1cc2ncnc(N3CCC(OC(=O)Nc4ccc(OC5CCC5)nc4)CC3)c2cc1OC [Compound 11, (6-Cyclobutoxy-pyridin-3-yl)-carbamic acid 1-(6,7-dimethoxy-quinazolin-4-yl)-piperidin-4-yl ester]",8.6
2,"COc1cc2ncnc(N3CCC(OC(=O)Nc4ccc(OC5CCC5)nc4)C3)c2cc1OC (stereo not shown) [Compound 12, (6-Cyclobutoxy-pyridin-3-yl)-carbamic acid 1-(6,7-dimethoxy-quinazolin-4-yl)-pyrrolidin-3-yl ester]",21.7
3,"COc1cc2ncnc(N3CCC(NC(=O)Nc4ccc(OC5CCC5)nc4)C3)c2cc1OC (stereo not shown) [Compound 44, 1-(6-Cyclobutoxy-pyridin-3-yl)-3-[1-(6,7-dimethoxy-quinazolin-4-yl)-pyrrolidin-3-yl]-urea]",4.88
